Data: ChEMBL document CHEMBL5696441 (Nat Chem Biol, 2011)

Assays:
[1] = tested on: Tyrosine-protein kinase ABL1 (Homo sapiens), P00519 [T315I]; experiment: Inhibition of ABL1 T315I mutant (unknown origin) assessed as remaining activity at 1 uM by Kinome scan method relative to control
[2] = biological target: Protein-tyrosine kinase 6 (Homo sapiens) (UniProt Q13882); experiment: Inhibition of BRK (unknown origin) assessed as remaining activity at 1 uM by Kinome scan method relative to control
[3] = biological target: Tyrosine-protein kinase Lyn (Homo sapiens) (UniProt P07948); experiment: Inhibition of LYN (unknown origin) assessed as remaining activity at 1 uM by Kinome scan method relative to control
[4] = biological target: T1, Mitogen-activated protein kinase kinase kinase kinase 2 (Homo sapiens) (UniProt Q12851); experiment: Inhibition of MAP4K2 (unknown origin) assessed as remaining activity at 1 uM by Kinome scan method relative to control
T1 sequence (whole entry): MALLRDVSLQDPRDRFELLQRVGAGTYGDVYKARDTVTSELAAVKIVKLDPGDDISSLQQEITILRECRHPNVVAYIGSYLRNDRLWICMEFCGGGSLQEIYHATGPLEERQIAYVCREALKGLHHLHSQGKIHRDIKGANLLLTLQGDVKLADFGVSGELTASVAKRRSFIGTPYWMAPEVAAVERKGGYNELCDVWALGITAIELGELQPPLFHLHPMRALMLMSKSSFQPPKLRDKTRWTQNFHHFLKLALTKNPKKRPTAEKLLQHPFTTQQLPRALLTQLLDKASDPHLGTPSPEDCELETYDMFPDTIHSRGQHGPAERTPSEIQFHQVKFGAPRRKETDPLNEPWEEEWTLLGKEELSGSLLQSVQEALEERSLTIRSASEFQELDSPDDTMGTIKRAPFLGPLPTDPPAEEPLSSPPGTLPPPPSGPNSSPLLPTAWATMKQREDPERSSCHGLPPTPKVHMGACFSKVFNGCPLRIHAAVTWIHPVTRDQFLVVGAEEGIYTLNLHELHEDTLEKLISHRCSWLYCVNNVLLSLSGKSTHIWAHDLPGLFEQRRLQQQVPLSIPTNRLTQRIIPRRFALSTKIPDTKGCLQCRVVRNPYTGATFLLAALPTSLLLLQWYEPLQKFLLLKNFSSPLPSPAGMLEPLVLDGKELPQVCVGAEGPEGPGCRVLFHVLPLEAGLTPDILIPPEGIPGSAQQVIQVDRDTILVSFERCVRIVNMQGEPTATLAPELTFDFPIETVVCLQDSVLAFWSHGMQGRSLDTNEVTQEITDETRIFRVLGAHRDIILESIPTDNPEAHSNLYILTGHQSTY

[5] = biological target: T2, MAP/microtubule affinity-regulating kinase 4 (Homo sapiens) (UniProt Q96L34); experiment: Inhibition of MARK4 (unknown origin) assessed as remaining activity at 1 uM by Kinome scan method relative to control
T2 sequence (whole entry): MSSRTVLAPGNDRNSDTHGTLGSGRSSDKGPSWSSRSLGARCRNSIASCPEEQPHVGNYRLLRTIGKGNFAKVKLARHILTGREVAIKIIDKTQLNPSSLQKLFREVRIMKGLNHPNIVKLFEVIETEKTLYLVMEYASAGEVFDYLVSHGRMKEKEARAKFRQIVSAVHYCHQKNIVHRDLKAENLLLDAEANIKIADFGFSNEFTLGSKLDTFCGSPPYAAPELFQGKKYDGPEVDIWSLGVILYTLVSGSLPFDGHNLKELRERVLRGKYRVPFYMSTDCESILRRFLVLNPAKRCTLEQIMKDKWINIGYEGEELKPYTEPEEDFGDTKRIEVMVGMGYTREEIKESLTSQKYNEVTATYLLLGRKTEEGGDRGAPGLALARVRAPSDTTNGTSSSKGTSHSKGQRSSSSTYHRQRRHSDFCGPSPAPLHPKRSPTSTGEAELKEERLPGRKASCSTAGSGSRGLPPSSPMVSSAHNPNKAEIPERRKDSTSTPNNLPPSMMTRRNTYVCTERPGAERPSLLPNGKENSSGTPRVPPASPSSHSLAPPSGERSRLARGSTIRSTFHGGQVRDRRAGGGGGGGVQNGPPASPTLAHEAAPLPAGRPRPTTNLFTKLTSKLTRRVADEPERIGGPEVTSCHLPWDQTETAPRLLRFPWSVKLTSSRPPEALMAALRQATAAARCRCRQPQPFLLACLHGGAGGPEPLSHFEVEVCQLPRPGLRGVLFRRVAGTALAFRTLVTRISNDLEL

[6] = biological target: Mitogen-activated protein kinase kinase kinase 10 (Homo sapiens) (UniProt Q02779); experiment: Inhibition of MLK2 (unknown origin) assessed as remaining activity at 1 uM by Kinome scan method relative to control
[7] = biological target: Serine/threonine-protein kinase SIK2 (Homo sapiens) (UniProt Q9H0K1); experiment: Inhibition of SIK2 (unknown origin) assessed as remaining activity at 1 uM by Kinome scan method relative to control
[8] = biological target: Non-receptor tyrosine-protein kinase TYK2 (Homo sapiens) (UniProt P29597); experiment: Inhibition of TYK2 JH1 domain (unknown origin) assessed as remaining activity at 1 uM by Kinome scan method relative to control
[9] = biological target: Serine/threonine-protein kinase 32B (Homo sapiens) (UniProt Q9NY57); experiment: Inhibition of YANK2 (unknown origin) assessed as remaining activity at 1 uM by Kinome scan method relative to control
[10] = biological target: Mitogen-activated protein kinase kinase kinase 20 (Homo sapiens) (UniProt Q9NYL2); experiment: Inhibition of ZAK (unknown origin) assessed as remaining activity at 1 uM by Kinome scan method relative to control
Mitogen-activated protein kinase kinase kinase 20 (Homo sapiens), sequence (Q9NYL2 2-800 limits assumed): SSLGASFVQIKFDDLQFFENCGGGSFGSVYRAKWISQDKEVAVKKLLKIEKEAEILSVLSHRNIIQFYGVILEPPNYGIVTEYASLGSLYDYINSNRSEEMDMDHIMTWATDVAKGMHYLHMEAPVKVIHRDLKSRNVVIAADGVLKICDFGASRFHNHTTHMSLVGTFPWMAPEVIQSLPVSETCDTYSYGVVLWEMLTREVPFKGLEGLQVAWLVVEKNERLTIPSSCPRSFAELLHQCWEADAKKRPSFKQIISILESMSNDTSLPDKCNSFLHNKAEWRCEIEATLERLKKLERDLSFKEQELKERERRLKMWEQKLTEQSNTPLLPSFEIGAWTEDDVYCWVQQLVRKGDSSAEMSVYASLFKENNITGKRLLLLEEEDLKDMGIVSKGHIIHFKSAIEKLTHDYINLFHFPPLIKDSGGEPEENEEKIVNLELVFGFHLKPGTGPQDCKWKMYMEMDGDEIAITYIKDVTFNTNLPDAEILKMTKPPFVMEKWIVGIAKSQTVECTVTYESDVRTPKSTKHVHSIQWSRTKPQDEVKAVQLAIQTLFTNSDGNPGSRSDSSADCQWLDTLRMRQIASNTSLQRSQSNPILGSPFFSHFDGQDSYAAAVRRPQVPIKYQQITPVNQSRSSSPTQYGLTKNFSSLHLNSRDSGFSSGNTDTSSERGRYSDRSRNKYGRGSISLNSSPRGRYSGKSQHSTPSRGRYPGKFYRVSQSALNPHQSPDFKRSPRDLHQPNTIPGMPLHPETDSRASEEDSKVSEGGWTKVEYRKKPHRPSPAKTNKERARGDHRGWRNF

Serine/threonine-protein kinase SIK2 (Homo sapiens), sequence (Q9H0K1 whole entry, looked up, the tested form may be a part): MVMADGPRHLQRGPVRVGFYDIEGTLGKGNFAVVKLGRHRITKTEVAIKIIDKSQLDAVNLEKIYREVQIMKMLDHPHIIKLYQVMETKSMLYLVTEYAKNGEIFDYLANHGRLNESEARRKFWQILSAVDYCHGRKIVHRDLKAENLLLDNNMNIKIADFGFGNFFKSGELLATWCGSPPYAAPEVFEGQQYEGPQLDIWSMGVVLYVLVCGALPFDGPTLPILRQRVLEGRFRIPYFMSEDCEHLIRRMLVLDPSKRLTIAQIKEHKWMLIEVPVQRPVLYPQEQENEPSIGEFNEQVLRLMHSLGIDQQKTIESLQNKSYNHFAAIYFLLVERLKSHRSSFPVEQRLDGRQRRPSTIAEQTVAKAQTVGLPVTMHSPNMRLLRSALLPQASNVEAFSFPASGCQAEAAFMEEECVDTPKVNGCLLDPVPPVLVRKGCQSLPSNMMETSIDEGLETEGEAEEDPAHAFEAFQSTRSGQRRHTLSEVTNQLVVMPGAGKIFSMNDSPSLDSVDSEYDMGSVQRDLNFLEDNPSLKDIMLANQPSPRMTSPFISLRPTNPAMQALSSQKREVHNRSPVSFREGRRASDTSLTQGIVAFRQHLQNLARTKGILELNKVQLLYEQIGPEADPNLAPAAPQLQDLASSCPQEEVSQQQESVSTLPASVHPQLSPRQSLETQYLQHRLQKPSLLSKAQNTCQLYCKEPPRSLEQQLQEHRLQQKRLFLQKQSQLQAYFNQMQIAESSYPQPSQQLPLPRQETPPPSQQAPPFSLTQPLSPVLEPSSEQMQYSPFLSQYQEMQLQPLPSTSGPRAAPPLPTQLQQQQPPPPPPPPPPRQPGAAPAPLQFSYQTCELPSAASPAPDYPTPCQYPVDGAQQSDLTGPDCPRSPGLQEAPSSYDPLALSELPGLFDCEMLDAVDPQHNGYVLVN
Non-receptor tyrosine-protein kinase TYK2 (Homo sapiens), sequence (P29597 whole entry, the tested form may be a part): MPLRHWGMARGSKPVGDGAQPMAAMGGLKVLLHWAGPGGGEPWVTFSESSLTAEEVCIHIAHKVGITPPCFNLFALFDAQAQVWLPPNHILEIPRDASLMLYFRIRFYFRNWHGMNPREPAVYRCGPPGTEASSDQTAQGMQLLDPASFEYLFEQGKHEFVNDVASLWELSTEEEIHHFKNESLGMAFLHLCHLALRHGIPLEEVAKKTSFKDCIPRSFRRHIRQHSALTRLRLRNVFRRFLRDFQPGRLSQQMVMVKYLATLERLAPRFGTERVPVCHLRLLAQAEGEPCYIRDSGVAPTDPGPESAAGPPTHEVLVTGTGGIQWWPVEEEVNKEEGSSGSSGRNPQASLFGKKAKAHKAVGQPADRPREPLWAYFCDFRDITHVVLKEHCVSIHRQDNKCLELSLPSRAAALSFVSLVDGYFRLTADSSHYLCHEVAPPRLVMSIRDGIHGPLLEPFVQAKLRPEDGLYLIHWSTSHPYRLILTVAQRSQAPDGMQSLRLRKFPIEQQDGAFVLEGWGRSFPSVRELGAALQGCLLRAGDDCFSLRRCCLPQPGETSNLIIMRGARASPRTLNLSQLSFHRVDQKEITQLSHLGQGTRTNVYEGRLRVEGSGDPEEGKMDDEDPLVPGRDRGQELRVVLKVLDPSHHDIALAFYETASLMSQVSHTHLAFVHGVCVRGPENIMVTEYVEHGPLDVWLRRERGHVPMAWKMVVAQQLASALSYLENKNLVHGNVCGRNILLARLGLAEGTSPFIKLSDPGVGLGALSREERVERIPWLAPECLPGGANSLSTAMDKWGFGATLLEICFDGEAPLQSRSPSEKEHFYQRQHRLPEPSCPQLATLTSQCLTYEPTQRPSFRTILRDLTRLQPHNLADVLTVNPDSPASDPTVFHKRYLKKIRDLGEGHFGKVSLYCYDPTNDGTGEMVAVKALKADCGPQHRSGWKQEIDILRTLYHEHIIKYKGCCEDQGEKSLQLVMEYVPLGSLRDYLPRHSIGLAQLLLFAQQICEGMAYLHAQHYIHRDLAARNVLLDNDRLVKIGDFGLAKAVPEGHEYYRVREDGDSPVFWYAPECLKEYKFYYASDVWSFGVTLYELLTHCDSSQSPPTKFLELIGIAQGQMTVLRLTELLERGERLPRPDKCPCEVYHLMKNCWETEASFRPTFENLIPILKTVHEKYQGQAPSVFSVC
Tyrosine-protein kinase Lyn (Homo sapiens), sequence (P07948 2-512 limits assumed): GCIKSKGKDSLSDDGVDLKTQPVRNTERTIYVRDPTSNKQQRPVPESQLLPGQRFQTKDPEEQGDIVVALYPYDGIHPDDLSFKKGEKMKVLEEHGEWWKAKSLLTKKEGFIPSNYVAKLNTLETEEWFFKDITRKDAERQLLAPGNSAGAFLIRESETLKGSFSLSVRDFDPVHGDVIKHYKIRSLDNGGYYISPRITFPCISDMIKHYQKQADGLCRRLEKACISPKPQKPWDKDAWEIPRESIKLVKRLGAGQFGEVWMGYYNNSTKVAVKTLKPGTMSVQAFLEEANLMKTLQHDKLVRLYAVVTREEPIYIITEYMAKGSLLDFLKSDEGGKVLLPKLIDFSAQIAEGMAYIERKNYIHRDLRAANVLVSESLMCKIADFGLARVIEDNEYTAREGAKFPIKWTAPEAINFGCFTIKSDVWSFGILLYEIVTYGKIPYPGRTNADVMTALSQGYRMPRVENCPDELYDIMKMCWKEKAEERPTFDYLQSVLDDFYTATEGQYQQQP
Serine/threonine-protein kinase 32B (Homo sapiens), sequence (Q9NY57 whole entry): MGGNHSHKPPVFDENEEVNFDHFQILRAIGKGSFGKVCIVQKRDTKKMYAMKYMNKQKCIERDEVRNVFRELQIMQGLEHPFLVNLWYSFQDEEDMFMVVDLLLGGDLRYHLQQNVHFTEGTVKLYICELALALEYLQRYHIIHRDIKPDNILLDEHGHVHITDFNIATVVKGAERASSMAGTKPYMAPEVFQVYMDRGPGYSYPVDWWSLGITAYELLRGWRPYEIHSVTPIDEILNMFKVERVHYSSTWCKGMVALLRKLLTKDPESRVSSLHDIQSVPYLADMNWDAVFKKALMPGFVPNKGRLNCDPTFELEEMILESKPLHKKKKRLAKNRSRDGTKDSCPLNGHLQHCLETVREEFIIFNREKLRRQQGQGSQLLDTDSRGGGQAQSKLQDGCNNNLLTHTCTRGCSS
Mitogen-activated protein kinase kinase kinase 10 (Homo sapiens), sequence (Q02779 whole entry, looked up): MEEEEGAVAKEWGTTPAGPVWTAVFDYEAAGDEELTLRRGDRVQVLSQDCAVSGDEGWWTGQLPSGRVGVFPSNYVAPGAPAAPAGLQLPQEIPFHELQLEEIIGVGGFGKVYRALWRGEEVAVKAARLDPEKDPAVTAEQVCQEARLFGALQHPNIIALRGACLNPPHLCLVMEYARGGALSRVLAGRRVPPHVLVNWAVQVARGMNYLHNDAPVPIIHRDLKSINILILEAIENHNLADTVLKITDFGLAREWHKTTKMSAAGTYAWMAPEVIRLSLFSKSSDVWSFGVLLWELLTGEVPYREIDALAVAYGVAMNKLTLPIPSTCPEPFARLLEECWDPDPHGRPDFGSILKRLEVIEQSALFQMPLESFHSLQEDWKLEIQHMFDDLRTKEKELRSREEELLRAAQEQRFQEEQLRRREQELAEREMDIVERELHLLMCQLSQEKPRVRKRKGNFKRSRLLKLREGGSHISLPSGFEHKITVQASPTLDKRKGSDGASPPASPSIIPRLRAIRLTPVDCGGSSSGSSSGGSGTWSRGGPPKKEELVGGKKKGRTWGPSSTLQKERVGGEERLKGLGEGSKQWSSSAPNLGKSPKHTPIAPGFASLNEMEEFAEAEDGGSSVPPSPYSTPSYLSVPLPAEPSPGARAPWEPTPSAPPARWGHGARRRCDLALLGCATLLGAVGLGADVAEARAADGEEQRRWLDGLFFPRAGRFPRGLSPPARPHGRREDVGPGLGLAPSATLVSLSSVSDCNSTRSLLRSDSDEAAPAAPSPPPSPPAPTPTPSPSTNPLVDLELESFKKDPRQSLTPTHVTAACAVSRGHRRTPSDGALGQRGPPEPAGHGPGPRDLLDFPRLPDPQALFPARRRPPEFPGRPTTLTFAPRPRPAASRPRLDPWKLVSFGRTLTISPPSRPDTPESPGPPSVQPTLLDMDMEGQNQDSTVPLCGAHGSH

Compound | Activity [1] | Activity [2] | Activity [3] | Activity [4] | Activity [5] | Activity [6] | Activity [7] | Activity [8] | Activity [9] | Activity [10]
Nc1ccccc1Nc1ccc2c(c1)CCc1ccccc1C2=O | 83% | 97% | 99% | 99% | 90% | 92% | 83% | 83% | 89% | 85%
O=C1c2ccc(Nc3ccc(F)cc3F)cc2CCc2ccc(OC[C@H](O)CO)cc21 [Skepinone-L] | 94% | 98% | 93% | 94% | 100% | 85% | 93% | 58% | 98% | 98%
